Assay results reported in article PMC5442763, “Selective Inhibition of ADAM17 Efficiently Mediates Glycoprotein Ibα Retention During Ex Vivo Generation of Human Induced Pluripotent Stem Cell‐Derived Platelets” (Stem Cells Translational Medicine, 2016).

Tests used:
[1] = molecular target: T1, human ADAM10 (Homo sapiens, UniProt O14672); experiment: MMP and ADAM activity assay (fluorescence-based): ADAM10; format: biochemical; settings: cell-free fluorescence assay
T1 construct: purchased R&D Systems
T1 sequence (O14672 214-748): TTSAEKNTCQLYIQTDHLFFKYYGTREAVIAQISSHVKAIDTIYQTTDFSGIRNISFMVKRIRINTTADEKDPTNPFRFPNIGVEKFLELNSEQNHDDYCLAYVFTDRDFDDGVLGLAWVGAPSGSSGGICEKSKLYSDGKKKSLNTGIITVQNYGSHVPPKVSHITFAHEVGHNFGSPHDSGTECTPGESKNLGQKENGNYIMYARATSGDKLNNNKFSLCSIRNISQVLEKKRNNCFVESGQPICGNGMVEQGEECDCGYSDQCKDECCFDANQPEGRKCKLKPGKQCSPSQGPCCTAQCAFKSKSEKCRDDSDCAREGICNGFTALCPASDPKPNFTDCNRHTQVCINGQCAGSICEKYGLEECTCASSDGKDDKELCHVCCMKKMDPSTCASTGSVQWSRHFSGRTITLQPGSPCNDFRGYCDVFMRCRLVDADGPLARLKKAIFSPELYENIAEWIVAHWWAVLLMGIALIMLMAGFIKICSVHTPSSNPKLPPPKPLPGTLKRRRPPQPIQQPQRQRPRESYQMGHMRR
Protocol: (§1) KP‐457 and GM‐6001 were tested for their ability to inhibit MMP‐ and ADAM‐catalyzed cleavage of substrates in a fluorescence‐based assay. Human ADAM17, ADAM10, and MMP17 were from R&D Systems (Minneapolis, MN, http://www.rndsystems.com), and human MMP1, MMP2, MMP3, MMP8, MMP9, MMP13, and MMP14 were from EMD Millipore. MMP1, MMP2, MMP8, MMP9, MMP13, and MMP17 were activated using p‐aminophenylmercuric acetate (Sigma‐Aldrich) before testing. Fluorogenic substrates for measuring activity of ADAM10 and ADAM17 [Nma‐[…](Dnp)r‐NH2, based on the cleavage site of TNF‐α]; MMP1, MMP9, MMP13, and MMP14 [Dnp‐P‐Cha‐GC(Me)HAK(N‐Me‐Abz)‐NH2]; MMP3 [MOCAc‐RPKPVE‐Nva‐WRK(Dnp)‐NH2]; and MMP2, MMP8, and MMP17 [MOCAc‐PLGL‐A2pr(Dnp)‐AR‐NH2] were all provided by Peptide Institute (Osaka, Japan, https://www.peptide.co.jp/en) and used as substrates. In addition, inhibitory activities were measured using LC/MS/MS with a GPIbα‐based substrate peptide ([…]), a C terminal‐based standard peptide ([…]), and an internal standard peptide ([…]). These peptides were synthetized by Scrum (Tokyo, Japan, http://www.scrum‐net.co.jp/english/top_en.htm).

[2] = molecular target: T2, human MMP1 (Homo sapiens, UniProt P03956); experiment: MMP and ADAM activity assay (fluorescence-based): MMP1; format: biochemical; settings: cell-free fluorescence assay
T2 construct: purchased EMD Millipore
T2 sequence (P03956 100-469): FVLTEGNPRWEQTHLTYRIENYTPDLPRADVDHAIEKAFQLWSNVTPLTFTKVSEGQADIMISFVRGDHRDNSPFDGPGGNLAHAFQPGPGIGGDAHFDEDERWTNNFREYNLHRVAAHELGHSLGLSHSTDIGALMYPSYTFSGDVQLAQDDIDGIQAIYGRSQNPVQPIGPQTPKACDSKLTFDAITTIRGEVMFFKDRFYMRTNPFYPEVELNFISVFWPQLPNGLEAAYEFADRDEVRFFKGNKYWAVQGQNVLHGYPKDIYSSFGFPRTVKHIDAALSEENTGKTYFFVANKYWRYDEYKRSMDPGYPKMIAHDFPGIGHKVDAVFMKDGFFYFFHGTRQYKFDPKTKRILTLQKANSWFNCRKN
Text: as §1, with “Human” for “KP‐457 and GM‐6001 were tested for their ability to inhibit MMP‐ and ADAM‐catalyzed cleavage of substrates in a fluorescence‐based assay. Human”

[3] = molecular target: T3, human MMP8 (Homo sapiens, UniProt P22894); experiment: MMP and ADAM activity assay (fluorescence-based): MMP8; format: biochemical; settings: cell-free fluorescence assay
T3 construct: purchased EMD Millipore
T3 sequence (P22894 101-467): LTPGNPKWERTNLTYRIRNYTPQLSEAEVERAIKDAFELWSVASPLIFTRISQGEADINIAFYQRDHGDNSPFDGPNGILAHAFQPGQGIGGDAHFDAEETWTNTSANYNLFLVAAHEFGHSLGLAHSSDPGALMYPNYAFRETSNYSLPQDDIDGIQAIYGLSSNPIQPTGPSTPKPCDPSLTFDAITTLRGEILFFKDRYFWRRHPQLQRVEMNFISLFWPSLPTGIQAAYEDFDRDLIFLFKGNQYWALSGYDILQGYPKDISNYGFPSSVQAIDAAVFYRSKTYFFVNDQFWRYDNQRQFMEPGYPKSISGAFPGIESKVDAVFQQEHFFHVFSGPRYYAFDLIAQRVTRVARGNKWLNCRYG
Text: as §1, with “Human” for “KP‐457 and GM‐6001 were tested for their ability to inhibit MMP‐ and ADAM‐catalyzed cleavage of substrates in a fluorescence‐based assay. Human”

[4] = molecular target: T4, human MMP13 (Homo sapiens, UniProt P45452); experiment: MMP and ADAM activity assay (fluorescence-based): MMP13; format: biochemical; settings: cell-free fluorescence assay
T4 construct: purchased EMD Millipore
Text: as §1, with “Human” for “KP‐457 and GM‐6001 were tested for their ability to inhibit MMP‐ and ADAM‐catalyzed cleavage of substrates in a fluorescence‐based assay. Human”

[5] = molecular target: T5, Human ADAM17 (Homo sapiens, UniProt P78536); experiment: Cleavage of GPIbα-based substrate peptide by ADAM17 (LC/MS/MS); format: biochemical; settings: GPIbα-based substrate peptide, LC/MS/MS; read-out: IC50, inhibition of C-terminal cleavage of the GPIbα sequence by ADAM17
T5 construct: purchased R&D Systems
T5 sequence (P78536 215-824): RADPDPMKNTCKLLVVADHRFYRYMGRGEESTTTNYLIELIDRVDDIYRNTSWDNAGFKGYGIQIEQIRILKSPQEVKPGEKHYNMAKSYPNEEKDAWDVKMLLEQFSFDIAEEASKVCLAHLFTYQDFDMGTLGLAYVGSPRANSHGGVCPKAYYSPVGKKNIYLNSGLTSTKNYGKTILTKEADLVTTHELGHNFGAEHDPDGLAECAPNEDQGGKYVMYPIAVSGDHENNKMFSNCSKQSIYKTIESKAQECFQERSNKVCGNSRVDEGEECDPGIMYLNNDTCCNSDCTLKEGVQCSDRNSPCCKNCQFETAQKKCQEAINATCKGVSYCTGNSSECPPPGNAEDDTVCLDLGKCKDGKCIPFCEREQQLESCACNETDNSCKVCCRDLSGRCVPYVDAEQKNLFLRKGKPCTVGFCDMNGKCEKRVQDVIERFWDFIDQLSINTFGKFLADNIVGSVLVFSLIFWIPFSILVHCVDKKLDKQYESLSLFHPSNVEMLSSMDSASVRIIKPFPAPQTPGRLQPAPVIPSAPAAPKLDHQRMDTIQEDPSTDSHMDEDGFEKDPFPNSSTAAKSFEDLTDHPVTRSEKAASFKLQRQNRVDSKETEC
Text: as §1, with “Human” for “KP‐457 and GM‐6001 were tested for their ability to inhibit MMP‐ and ADAM‐catalyzed cleavage of substrates in a fluorescence‐based assay. Human”
(1 picture or pasted object on this page, not shown here)

[6] = system: human iPSC-derived MKs and platelets; experiment: Generation of MKs and platelets from human iPSC-derived HPCs at 37°C, flow cytometry; format: cell-based
Protocol: (§2) Directed differentiation to MKs and platelets from iPSCs and ESCs was performed as described previously. Briefly, 3 × 10^4 HPCs derived from iPS‐sacs on C3H10T1/2 feeder cells in the presence of 20 ng/ml vascular endothelial growth factor were transferred on day 14 of culture onto C3H10T1/2 feeder cells in differentiation medium supplemented with 50 ng/ml stem cell factor, 100 ng/ml thrombopoietin, 25 U/ml heparin sodium, and test compounds at 24°C or 37°C. The medium was refreshed every 3 days, and nonadherent cells were collected and analyzed on days 22–24.
(§3) Flow cytometric analysis was performed as previously described. Briefly, iPSC‐ and ESC‐derived MKs on days 22–24 and platelets in their supernatants were stained with combinations of antibodies for 30 minutes on ice (for MKs) or at room temperature (for platelets). Samples of MKs/platelets were then washed, diluted with staining medium (phosphate‐buffered saline containing 3% fetal bovine serum), and analyzed using flow cytometry (FACSAria; BD). Trucount tubes (BD) were used to quantify the MKs and platelets.

[7] = system: platelets derived from human ESCs; experiment: GPIbα retention in platelets derived from human ESCs; format: cell-based; settings: KP-457 15 µmol/L
Protocol: as §2, §3
Fig. S4. The inhibitory effect of KP-457 on GPIbα shedding in platelets derived from human
ESCs and immortalized megakaryocyte progenitor cell lines (imMKCLs).
Percentages of GPIbα-expressing CD41a+ platelets produced from human ESCs (A) and […]

[8] = system: imMKCL platelets; experiment: GPIbα retention in imMKCL-derived platelets; format: cell-based, human
Protocol: imMKCL expansion and subsequent platelet production were performed as previously reported. Briefly, imMKCLs were cultured in the presence of doxycycline for self‐replication by the expression of three doxycycline‐regulated transgenes: c‐MYC, BMI1, and BCL‐XL. imMKCLs were subsequently cultured for 5 days in the absence of doxycycline to produce platelets by turning the transgenes off, with or without 15 µmol/l KP‐457.
as §3
Fig. S4. The inhibitory effect of KP-457 on GPIbα shedding in platelets derived from human ESCs and immortalized megakaryocyte progenitor cell lines (imMKCLs).
Percentages of GPIbα-expressing CD41a+ platelets produced from human ESCs (A) and immortalized megakaryocyte progenitor cell lines (imMKCLs) (B), in the absence or presence of KP-457 (15 µmol/L). * P < 0.05 compared to the vehicle group by student’s t test, N≧3. […]

[9] = system: dogs; experiment: Good laboratory practice systemic toxicity study in dogs; format: in vivo; settings: intravenously once a day for 4 weeks, doses up to 3 mg/kg (maximal dose tested), data not shown
[10] = KP-457 15 μmol/l, GM-6001 50 μmol/l, p38 MAP kinase inhibitor 10 μmol/l

CC#CCOc1ccc(S(=O)(=O)CC(c2ccc(CNS(C)(=O)=O)cc2)N(O)C=O)cc1 (centres unmarked) [KP-457, N‐(2‐{[4‐(but‐2‐yn‐1‐yloxy)phenyl]sulfonyl}‐1‐[4‐(methylsulfonamidomethyl)phenyl]ethyl)‐N‐hydroxyformamide]
IC50 [1]: 748 nM | IC50 [2]: > 100000 nM | IC50 [3]: 2200 nM | IC50 [4]: 930 nM | IC50 [5]: 10.6 nM | number of CD41a+ total iPSC platelets [6, 10]: no significant effect | retention of GPIbα expression on CD41a+ iPSC-derived platelets [6, 10]: able to retain | number of CD41a+ iPSC-derived MKs ([6]; KP-457 15 μmol/l, GM-6001 50 μmol/l, p38 MAP kinase inhibitor 10 μmol/l, MK differentiation and platelet production phases): no significant effect | GPIbα+ population in human iPSC-derived CD41a+ platelets ([6]; KP-457 15 μmol/l, representative FACS plot, vehicle 48.3%): 80.7% | GPIbα retention by iPSC-derived platelets, inhibitor only during platelet production phase ([6]; days 21–23 or 24, KP-457 15, BIRB796 10, U0126 10, BMS345541 10, Z-VAD 10, Ro31-8220 3 μmol/l): more effectively sustained | GPIbα retention in platelets derived from human ESCs [7]: consistently observed | GPIbα expression on platelets under static culture ([8]; 3 days, 37°C, in the presence of KP-457, data not shown): highly maintained | GPIbα retention in platelets derived from imMKCLs ([8]; KP-457 15 µmol/L): consistently observed | systemic toxicity [9]: neither genotoxicity nor systemic toxicity
